Measured values: US11918552B2, “N-acetylcysteine for use as antibacterial agent” (priority 2016, dated 2024)
≈ marks a conversion by molar mass, not a printed value.

Key:
[1] = tested on: BCC isolates; test: Effect of sub-MIC concentrations on growth curves; assay type: cell-based, Burkholderia cepacia complex; conditions: sub-MIC concentrations (4 and 8 mg/ml), all 4 tested BCC isolates
[2] = tested on: S. maltophilia biofilm; test: Inhibition of biofilm formation, MBEC High-Throughput Assay, viable cell count; assay type: cell-based, Stenotrophomonas maltophilia; conditions: NAC 4, 8 and 16 mg/ml, all S. maltophilia isolates
[3] = tested on: S. maltophilia isolates; test: Effect of sub-MIC concentrations on growth curves; assay type: cell-based, Stenotrophomonas maltophilia; conditions: sub-MIC concentrations (4 and 8 mg/ml), all 4 tested S. maltophilia isolates
[4] = tested on: S. maltophilia clinical isolates; test: MIC by broth microdilution; assay type: cell-based; conditions: Stenotrophomonas maltophilia
[5] = tested on: BCC biofilm; test: Inhibition of biofilm formation, MBEC High-Throughput Assay, viable cell count; assay type: cell-based, Burkholderia cepacia complex; conditions: NAC 4, 8 and 16 mg/ml, two BCC isolates
[6] = tested on: BCC (B. cepacia, B. cenocepacia, B. multivorans, B. metallica, B. seminalis, B. stabilis) clinical isolates; test: organism not typed; assay type: cell-based, Burkholderia cepacia complex
[7] = tested on: S. maltophilia isolates; test: Time-kill assay; assay type: cell-based, Stenotrophomonas maltophilia; conditions: NAC 32 mg/ml
[8] = tested on: BCC isolates; test: Time-kill assay; assay type: cell-based, Burkholderia cepacia complex; conditions: NAC 32 mg/ml

For `CC(=O)N[C@@H](CS)C(=O)O` [NAC, N-acetylcysteine], the Effect on growth [1] was “slowed down the growth”, the “Inhibition of biofilm formation” value [2] was “inhibit biofilm formation in a dose-dependent fashion” and the Effect on growth [3] was “slowed down the growth”. For the same compound, the MIC ([4]; nine of 16 S. maltophilia clinical isolates) was 16 mg/mL (≈ 98 mM), the MIC ([4]; remaining S. maltophilia isolates (of 16)) was 32 mg/mL (≈ 196 mM) and the “Inhibition of biofilm formation” value [5] was “inhibit biofilm formation in a dose-dependent fashion”. For the same compound, the MIC ([6]; remaining BCC isolates (of 16)) was 32 mg/mL (≈ 196 mM), the MIC ([6]; seven of 16 BCC clinical isolates) was 16 mg/mL (≈ 98 mM) and the “Reduction of bacterial inoculum (bactericidal)” value ([7]; one S. maltophilia isolate) was “more than 3 logs”. The “Reduction of bacterial inoculum” value ([7]; remaining S. maltophilia isolates) was < 1 log CFU/ml, the “Reduction of bacterial inoculum (bactericidal)” value ([8]; one BCC isolate) was “more than 3 logs” and the “Reduction of bacterial inoculum” value ([8]; remaining BCC isolates) was < 1 log CFU/ml.
